Measurements taken from a melting point compilation (Tetko et al.; mined from patent text by program, amines drawn as free bases though some values may be those of a salt).

| Structure (SMILES) | melting point [°C] |
| --- | --- |
| CC(C)(CO)NC(=O)c1n[nH]cc1NC(=O)c1ccccn1 | 193 to 195 |
| N#Cc1c(C(N)=O)nn2c(-c3cccc(C(F)(F)F)c3)ccnc12 | 236 to 238 |
| CCOc1cccc(-c2cn(C)cc(-c3ccccc3)c2=O)c1 | 133 to 135 |
| CC(=O)C1CC2=C(CO1)C(=O)c1ccccc1C2=O (stereo not drawn) | 135 to 136 |
| CNC(=O)/C(=N/OC)c1ccccc1COc1ncc(Cl)cc1C(F)(F)F | 105 to 106 |
| CCOC(=O)c1ccccc1NC(=O)Nc1ccccc1I | 162 to 164 |
| Cc1c(C(=O)O)cnn1CCO | 203 |
| O=c1[nH]cnc2c1ncn2[C@@H]1CO[C@H](CO)C1 | 98 |
| COc1nc(OC)nc(N(C)C(=O)NS(=O)(=O)c2ccccc2S(C)(=O)=O)n1 | 160 to 162 |
| COc1ccc(-c2nnn(-c3ccc(C(F)(F)F)cc3Cl)c2N)cc1 | 130 to 131 |
| c1ccc(CN[C@H]2CCCN[C@H]2c2ccc(-c3ccccc3)cc2)cc1 (relative stereo) | > 268 |
| CC=C(C(=O)OC(c1ccccc1)c1ccccc1)N1C(=O)[C@@H]2N=C(Cc3ccccc3)O[C@@H]21 | 104 to 106 |
| CCCCCCCCCCCCCCCCCCOc1cc(C(=O)OC)cc(N(CC(=O)O)CC(=O)O)c1 | 119 to 123 |
| Cc1cccc(NP(N)(N)=O)c1 | 159 to 162 |
| CC(C)Cn1c(-c2c(F)cccc2F)c(Cl)nc(-n2cccn2)c1=O | 118 to 119 |
| Cc1ccc2cccc(OCc3c(Cl)ccc(S(N)(=O)=O)c3Cl)c2n1 | 206 to 208 |
| CCN(c1ccc(Cl)cc1[N+](=O)[O-])S(=O)(=O)c1ccc(Cl)cc1 | 122 to 123 |
| O=C(O)c1ccc(CN(C2CCCCC2O)S(=O)(=O)c2ccc(Cl)cc2)cc1 (stereo not drawn) | 218 to 219 |
| COc1ccccc1-c1ccn2ncc(Br)c2n1 | 125 to 128 |
| CC(=O)OC(COc1ccc(/C=C/C(=O)O)c(Oc2ncc(C(F)(F)F)cc2Cl)c1)COC(C)C (stereo not drawn) | 134 to 135 |

| Structure (SMILES) | melting point [°C] |
| --- | --- |
| CCN(CC1CCN(C(=O)NC)CC1)C(C)Cc1ccc(OC)cc1 (stereo not drawn) | 97 to 98 |
| CC1CC2C3CCC4=CC(=O)C=CC4(C)C3=CCC2(C)C1C(=O)CN1CCN(c2cc(NCC(C)(C)C)nc(NCC(C)(C)C)n2)CC1 (stereo not drawn) | 140 to 150 |
| Cc1noc(NS(=O)(=O)c2ccc(N(C)C)cc2)c1C | 152 to 154 |
| CCN(CC)C(=O)COc1ccn2nc(-c3ccccc3)c(-c3ccc(=O)n(C(C)C)n3)c2c1 | 125 to 126 |
| O=C(O)C1(CS(=O)(=O)c2ccc(Oc3ccccc3)cc2)CCOCC1 | 162 to 165 |
| COC(=O)C(C(=O)OC)c1cc([N+](=O)[O-])ccc1C(=O)O | 153 |
| COC(=O)CC(=O)Cc1cc(F)c(F)cc1F | 37 to 39 |
| CCCOc1ccccc1-c1nc2nc(SC)ncc2c(=O)[nH]1 | 179 to 181 |
| Cc1ccc(N)c2nccc(Cl)c12 | 104 to 107 |
| COc1ccnc(CCc2nc3cc(-c4ccc(S(=O)(=O)N(C)c5ccc(Cl)cc5)cc4)cnc3[nH]2)c1 | 191 to 192 |
| O=c1ccc(S(=O)(=O)c2oc3ccccc3c2O)n[nH]1 | 186 to 189 |
| O=[N+]([O-])c1cnccc1NCCCCO | 80 to 82 |
| CCCn1c(=O)c2c(ncn2CCCCC(C)=O)n(C)c1=O | 76 to 78 |
| C=CCOc1c(OC)cc([C@H]2CC[C@H](c3cc(OC)c(OC)c(OC)c3)O2)cc1S(C)(=O)=O (relative stereo) | 97 to 98 |
| CCOC(=O)C1(C(=O)Nc2ccc(Br)cc2C)CC1 | 89.5 to 90 |
| O=C1c2ccccc2-c2cc(O)cc3ccc(O)c1c23 | 280 |
| COc1ccc(CNC(=O)C2=C(C(=O)Nc3cc(OC4CCCC4)c(Cl)cc3F)CCCC2)cc1 | 161 to 162 |
| CCCC1Cc2cc(OCC(=O)O)c(Cl)c(Cl)c2C1=O (stereo not drawn) | 199 to 203 |
| O=C(O)c1cc2c(-c3cccs3)nccc2[nH]c1=O | 278 |
| CCC(=C(c1ccccc1)c1ccc(OCC(O)CO)cc1)C1CCCC1 (stereo not drawn) | 89 to 91 |

| Structure (SMILES) | melting point [°C] |
| --- | --- |
| Clc1ccc2c(C3CCN(CCCOc4cccc5[nH]ccc45)CC3)c[nH]c2c1Cl | 160 to 165 |
| CC1CCCCN1CCC(=O)Nc1ccc2c(=O)c3ccc(NC(=O)CCN4CCCCC4C)cc3[nH]c2c1 (stereo not drawn) | > 320 |
| CSc1cc(C)nc(SC)c1NC(=O)CCCCCCSc1nc2c(C)c(Cl)cc(C(C)C)c2o1 | 129 to 131 |
| N#Cc1ccc(C(=O)c2cc(C(F)(F)F)ccc2O)cc1 | 118 |
| CN(C(=O)c1ccc(Cn2cnc3ncnc-3c2)cc1)C1CCCCC1 | 229 to 230 |
| O=S(=O)(Nc1cc(Br)c(O)c2ccccc12)c1cccs1 | 128 to 130 |
| COc1ccc(-c2nc(Sc3cccc(OC)c3)n(C3CCCCO3)c2-c2ccc(OC)cc2)cc1 (stereo not drawn) | 123 |
| CC1(C)N=C(c2ccccc2Cl)c2cc(N)ccc2-n2cnnc21 | 264 |
| N#CC1=C(c2ccsc2)Nc2n[nH]cc2C1c1cccc2nonc12 (stereo not drawn) | 242 |
| Cc1cccc2sc(-n3nc(CCC(=O)N(C)O)cc3-c3ccc(Cl)cc3)nc12 | 156 to 158 |
| Cc1ccc(-c2cc3ccc(C(=O)Nc4ccc(CN(C)C5CCOCC5)cc4)cc3o2)cc1 | 224 to 227 |
| CN(c1cccc2cc(-c3ncc(CCC(=O)O)s3)[nH]c12)S(=O)(=O)c1cccs1 | 234 to 235 |
| Cc1cc(C)c2ncc(C(=O)O)c(-c3ccccc3Cl)c2c1 | 234 to 235 |
| O=C(O)C(=O)c1ccc(O)c(Cl)c1 | 116 to 117 |
| C[C@]1(Cn2cc([N+](=O)[O-])nc2Cl)CO1 | 65.5 to 67 |
| Oc1ccc(Br)cc1-c1nc2ccccc2s1 | 164 to 165 |
| O=C(Cl)c1cccnc1Nc1cccc(Cl)c1 | 112 to 115 |
| N#Cc1cc(F)c(-n2c(=O)cc(C(F)(F)F)[nH]c2=O)cc1Oc1ccc2ccccc2c1 | 92 |
| COc1ccc(C(CC(=O)O)N2C(=O)C3C=C(Cl)C(Cl)=C(Cl)C3(Cl)C2=O)cc1 (stereo not drawn) | 236 to 238 |
| CCCCCCCCCCCCCCCCSCC(CNS(=O)(=O)CCCCl)NC(=O)OC (stereo not drawn) | 67 to 69 |

The remaining lines, values ahead:

| melting point [°C] | Structure (SMILES) |
| --- | --- |
| 81 | CCC[C@H]1CC[C@H]([C@H]2CC[C@H](c3ccc(C(C)=O)cc3)CC2)CC1 |
| 266 | O=C(O)c1cn(CCO)c2cc(Cl)c(F)cc2c1=O |
| 188 to 191 | Clc1ccc(C(c2ccc(Cl)cc2)(c2nc[nH]n2)n2ccnc2)cc1 |
| 51 to 53 | COc1cc(C(=O)CSCC2CCCCC2)c(OC)cc1Cl |
| 118 to 119 | CCOC(=O)c1cnn(-c2ccccc2Oc2ccc(C)cc2O)c1 |
| 105 to 107 | CC(=O)ON=C(N)c1ccc(C(=O)NCCCNC(=O)[C@@H]2CCCN2S(=O)(=O)c2ccc(Cl)c(COc3cccn4cc(C)nc34)c2Cl)cc1 |
| 150 to 151 | COC(=O)c1cc2cc(Br)ccc2nc1C |
| 141 to 145 | CC1(C2CCC3C4CCC5CC=CCC5(C)C4C(O)CC32C)OCCO1 (stereo not drawn) |
| 191 to 192 | O=C(Nc1ccc2nc(-c3ccccc3)oc2n1)c1ccccc1 |
| > 250 | CCCn1c(=O)c2[nH]c(-c3ccsc3)nc2n(CCC)c1=O |
| 214 to 216 | C=CCOc1cc(C(O)(C(F)(F)F)C(F)(F)F)cc2c(C)cc(=O)[nH]c12 |
| 168 to 169 | Cc1ncc(C#N)c(Nc2ccc3[nH]ccc3c2C)c1-c1cc2cc(C=O)ccc2o1 |
| 192 to 193 | C=CCOc1cc(C(=O)O)cc([N+](=O)[O-])c1C(=O)c1ccccc1 |
| 130 to 132 | CCC(C)NS(=O)(=O)c1ccc(N)c(C(=O)N2CCN(C)CC2)c1 (stereo not drawn) |
| 153 to 155 | CC(CC(=O)O)CC(=O)N(c1ccccc1)c1cc(C(C)(C)C)c(O)c(C(C)(C)C)c1 (stereo not drawn) |
| 86 to 98 | Cc1noc(NS(=O)(=O)c2ccccc2-c2ccc(-c3ncco3)cc2COCC(C)C)c1C |
| 44 to 45 | CCCCCCCCOc1ccc(C(=O)COC(C)=O)cc1 |
| 56 to 58 | O=S(CCCCCl)Cc1ccc(Cl)cc1 (stereo not drawn) |
| 90.5 to 93 | COC1=CC[C@H]2[C@@H]3CCc4cc(OC)ccc4[C@H]3CC[C@]12C |

| melting point [°C] | Structure (SMILES) |
| --- | --- |
| 226 to 230 | CC(C)Nc1nc(-n2cc(C(=O)O)c(=O)c3cc(F)c(F)c(Cl)c32)c(F)cc1F |
| 174 to 176 | Cc1cccc(C)c1OC(=O)c1ccccc1C(=O)Oc1c(C)cccc1C |
| 59.5 to 60.5 | C[C@@H](O)c1cc2ccoc2cn1 |
| 194 to 195 | CCCSc1ncc(CO)n1Cc1ccc(-c2ccccc2C(=O)O)cc1 |
| 54 | COc1ccc(C=O)cc1CS(=O)(=O)O |
| 95 to 97 | CCCc1cn2ccccc2c1C(=O)c1ccc(OS(=O)(=O)c2ccc(C)cc2)cc1 |
| 161 to 163 | CSc1c(CC(C)(C)C(=O)O)n(Cc2ccc(Cl)cc2)c2ccc(F)cc12 |
| 151 to 153 | COC(=O)Cc1nn(Cc2ccc(Br)cc2F)c(=O)c2ccccc12 |
| 153 to 154 | COc1ccc(N2C(=O)C3=C(SCCS3)C2O)cc1 (stereo not drawn) |
| 252 to 255 | O=c1c2c(Cc3ccccc3C(F)(F)F)n[nH]c2c2cccnc2n1-c1cccc(OC(F)(F)F)c1 |
| 164 to 165 | CN1CCC(N2C(=O)c3cc(Cl)ccc3Sc3ccccc32)CC1 |
| 196 | CC(=O)N[C@H]1CC[C@H](CCN2CCN(c3ncc(C)c4c3CCO4)CC2)CC1 |
| 156 to 158 | Cc1cc(C(C)(C)C)c(O)c(C)c1COC(=O)CCCCC(=O)OCc1c(C)cc(C(C)(C)C)c(O)c1C |
| 137 to 138 | CN(C)C(=O)Nc1ccc(Oc2ccc3c(c2)OC(C)(C)CC3)cc1 |
| 130 | CCOC(=O)c1ccc(OC)c(OCc2nc(C)c(C)nc2C)c1 |
| 133 to 137 | CC(=O)Nc1ccc(C(=O)N(CCN2CCC(C(=O)c3ccc(F)cc3)CC2)c2ccc(O)cc2)cc1 |
| 305 | CCCCCC(=O)Nc1ccc(C(=O)NN=C2C(=O)Nc3ccc(I)cc32)cc1 |
| 226 to 228 | O=c1c2c(Cc3ccc(F)cc3)n[nH]c2c2cccnc2n1-c1cccc(OC(F)(F)F)c1 |
| 53 to 65 | CC(=O)SC1NC(=O)C1C (stereo not drawn) |
